Data reported in patent US11340239B2, “BNP (1-32) epitope and antibodies directed against said epitope” (Bio-Rad Europe GMBH, priority 2007, dated 2022).
Entries after “also recorded” stand apart in the source; their conditions may differ. Positions of bridges follow the written chain, without caps; N, C: chain ends. Non-standard residues stand in square brackets, D forms with d. Residues, ends and D or L forms follow the SMILES beside them. *: point of attachment. Ahx = NCCCCCC(=O)O; Acm = CC(=O)NC*

Assays:
BNP(1-32) = molecular target: T1, BNP(1-32) (Homo sapiens, UniProt P16860); assay: Immunisation of mice, ELISA of sera; assay type: in vivo; conditions: Balb/c mice immunised with KLH-coupled peptide
T1 construct: BNP(1-32): synthetic peptide (Sigma-Aldrich, USA, #B-5900); purchased Sigma-Aldrich B-5900; host or cells: chemical synthesis
T1 sequence (P16860 103-134 limits assumed): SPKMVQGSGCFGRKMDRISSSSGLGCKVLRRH
Protocol: In order to produce monoclonal antibodies, ten mice (Balb/c strain females, 5 weeks old, ref: SIFE055, Charles Rivers, Mass., USA) were immunised using one of the following peptides:
For the first injection, an emulsion of 100 μg of KLH-coupled peptide (at a concentration of 1 mg/ml) diluted to ½ in Freund's complete adjuvant (Sigma, #F-5881) was prepared, and 200 μL of said emulsion (i.e. 100 μg of peptide) were injected subcutaneously into each mouse. At intervals of 20 days, three 200 μL booster shots of an emulsion of KLH-coupled peptide (i.e. 100 μg of peptide) and Freund's incomplete adjuvant (Sigma, #F-5506) were injected subcutaneously, then peritoneally, into each mouse.
An ELISA test was carried out on a solid support to detect the presence of anti-BNP(1-32) antibodies in a mouse serum sample. […]
The microplate was washed three times with 0.1% PBS-T. Each serum from previously immunised mice was subsequently diluted tenfold with 0.1% PBS-T containing 0.1% milk (semi-skimmed), then deposited on the basis of 100 μL per well and left to incubate for two hours at 37° C. […] The enzymatic reaction was stopped by adding 50 μL of sulphuric acid (H2SO4, 4 N) per well, and the OD at 490 nm was subsequently measured in each well.

20G7 antibody [1] = assay: Calibrator standard range in ELISA with 20G7 in revelation; assay type: binding; conditions: FIGS. 16 and 17
Protocol: (§1) The CaliproBNP1 calibrator was diluted to 1 μg/mL, 0.2 μg/mL, 0.1 μg/mL, and 0.02 μg/mL, the CaliproBNP3 calibrator was diluted to 1.6 μg/mL, 0.8 μg/mL, 0.3 μg/mL, 0.06 μg/mL, the CaliproBNP5 and CaliproBNP6 calibrators were diluted to from 100 ng/ml to 0.01 ng/ml in the same 0.1 M succinate buffer, pH 7.6.

20G7 antibody [2] = assay: Calibrator standard range in BioPlex 2200 proBNP assay; assay type: binding; conditions: FIGS. 14 and 15
Protocol: as §1

[3] = Accelerated liquid stability, ELISA format
Protocol: (§2) The different compounds were tested at different concentrations diluted in 0.1 M succinate buffer, pH 7.6, containing 5% BSA, 2 mM CaCl2, 10% antiproteases cocktail (Sigma reference P2714), 0.1% Proclin, 0.095% NaN3 and 0.1% sodium benzoate.
(§3) The compounds stability was studied in accelerated condition (room temperature) compared to synthetic BNP(1-32) (Sigma-Aldrich, Etats-Unis, #B-5900) and recombinant proBNP(1-108) (HyTest Ref. 8PRO8) in the following way:
(§4) Recombinant proBNP(1-108), synthetic BNP(1-32) and calibrator peptides were diluted in 0.1 M succinate buffer, pH 7.6 described above. Each solution was divided in 10 tubes placed at room temperature (20° C.±5° C.). Then one tube of each solution was frozen at J0, J+7, J+14, J+21. At J+21, the different solutions were thawed and assayed by means of the BioPlex™ 2200 proBNP assay described in Example 14 or of the immunoassays described in Examples 8.2 and 10.2.
(§5) In the BioPlex™ 2200 proBNP assay, the stability of two concentrations of proBNP(1-108), 10 ng/mL and 1 ng/mL, of CaliproBNP1, 2 μg/mL and 0.125 μg/mL and CaliproBNP3, 1 μg/mL and 0.3 μg/mL, were analyzed. In ELISA format, three concentrations of proBNP(1-108) and BNP(1-32), 1.56 ng/mL, 0.78 ng/ml and 0.39 ng/mL, and of CaliproBNP5, […], 31 ng/mL and 15.6 ng/mL, were analysed.

[4] = Accelerated liquid stability, BioPlex 2200 proBNP assay
Protocol: as §2, §3, §4, §5

[5] = room temperature, up to J0 + 21

Ac-TGCFGRKMDRISTSTAIGCKVLCys-CONH2 (Ac-TGCFGRKMDRISTSTAIGCKVLC-NH2; disulfide 3-19; also: KLH-coupled) [SEQ ID NO: 4, immunogen peptide, coupled to KLH]
immune response / antiserum reactivity towards BNP(1-32) (BNP(1-32)): very reactive; also recorded: much greater

Ac-YTLRAPRSPKMV-Ahx-FGRKMDR-Ahx-SGLGC*KVLRRH-COOH (Ac-YTLRAPRSPKMV[Ahx]FGRKMDR[Ahx]SGLGC(Acm)KVLRRH-OH; SMILES CSCC[C@H](NC(=O)[C@H](CCCCN)NC(=O)[C@H](CCCNC(=N)N)NC(=O)CNC(=O)[C@H](Cc1ccccc1)NC(=O)CCCCCNC(=O)[C@@H](NC(=O)[C@H](CCSC)NC(=O)[C@H](CCCCN)NC(=O)[C@@H]1CCCN1C(=O)[C@H](CO)NC(=O)[C@H](CCCNC(=N)N)NC(=O)[C@@H]1CCCN1C(=O)[C@H](C)NC(=O)[C@H](CCCNC(=N)N)NC(=O)[C@H](CC(C)C)NC(=O)[C@@H](NC(=O)[C@H](Cc1ccc(O)cc1)NC(C)=O)[C@@H](C)O)C(C)C)C(=O)N[C@@H](CC(=O)O)C(=O)N[C@@H](CCCNC(=N)N)C(=O)NCCCCCC(=O)N[C@@H](CO)C(=O)NCC(=O)N[C@@H](CC(C)C)C(=O)NCC(=O)N[C@@H](CSCNC(C)=O)C(=O)N[C@@H](CCCCN)C(=O)N[C@H](C(=O)N[C@@H](CC(C)C)C(=O)N[C@@H](CCCNC(=N)N)C(=O)N[C@@H](CCCNC(=N)N)C(=O)N[C@@H](Cc1c[nH]cn1)C(=O)O)C(C)C) [CaliproBNP6, triepitopic calibrator]
signal in the BNP(1-32) and the proBNP(1-108) assay (20G7 antibody [1]): signal increasing with the compound concentration

CC[C@H](C)[C@H](NC(=O)[C@H](CCCNC(=N)N)NC(=O)[C@H](CC(=O)O)NC(=O)[C@H](CCSC)NC(=O)[C@H](CCCCN)NC(=O)[C@H](CCCNC(=N)N)NC(=O)CNC(=O)[C@H](Cc1ccccc1)NC(=O)[C@H](CO)NC(=O)CCCCCNC(=O)[C@@H](NC(=O)[C@H](CCSC)NC(=O)[C@H](CCCCN)NC(=O)[C@@H]1CCCN1C(=O)[C@H](CO)NC(=O)[C@H](CCCNC(=N)N)NC(=O)[C@@H]1CCCN1C(=O)[C@H](C)NC(=O)[C@H](CCCNC(=N)N)NC(=O)[C@H](CC(C)C)NC(=O)[C@@H](NC(=O)[C@H](Cc1ccc(O)cc1)NC(C)=O)[C@@H](C)O)C(C)C)C(=O)N[C@@H](CO)C(=O)N[C@@H](CO)C(N)=O [CaliproBNP1, Ac-YTLRAPRSPKMV-Ahx-SFGRKMDRISS-CONH2] (Ac-YTLRAPRSPKMV[Ahx]SFGRKMDRISS-NH2)
signal in the BioPlex 2200 proBNP assay (20G7 antibody [2]): increasing signal with the compound concentration

CSCC[C@H](NC(=O)[C@H](CCCCN)NC(=O)[C@H](CCCNC(=N)N)NC(=O)CNC(=O)[C@H](Cc1ccccc1)NC(=O)CCCCCNC(=O)CNC(=O)[C@H](CO)NC(=O)CNC(=O)[C@H](CCC(N)=O)NC(=O)[C@@H](NC(=O)[C@H](CCSC)NC(=O)[C@H](CCCCN)NC(=O)[C@@H]1CCCN1C(=O)[C@H](CO)NC(C)=O)C(C)C)C(=O)N[C@@H](CC(=O)O)C(=O)N[C@@H](CCCNC(=N)N)C(N)=O [CaliproBNP5, Ac-SPKMVQGSG-Ahx-FGRKMDR-CONH2] (Ac-SPKMVQGSG[Ahx]FGRKMDR-NH2)
Liquid stability at room temperature in buffer, ratio “signal at J0 + X/signal at J0” ([3]; J0 + 7, 0.0156 ng/mL): 1.1 | Liquid stability at room temperature in buffer, ratio “signal at J0 + X/signal at J0” ([3]; J0 + 7, 0.031 ng/mL): 1.06 | Liquid stability at room temperature in buffer, ratio “signal at J0 + X/signal at J0” ([3]; J0 + 7, 0.0625 ng/mL): 1.02 | Liquid stability at room temperature in buffer, ratio “signal at J0 + X/signal at J0” ([3]; J0 + 14, 0.0156 ng/mL): 1.01 | Liquid stability at room temperature in buffer, ratio “signal at J0 + X/signal at J0” ([3]; J0 + 14, 0.031 ng/mL): 1.01 | Liquid stability at room temperature in buffer, ratio “signal at J0 + X/signal at J0” ([3]; J0 + 14, 0.0625 ng/mL): 1.02 | Liquid stability at room temperature in buffer, ratio “signal at J0 + X/signal at J0” ([3]; J0 + 21, 0.0156 ng/mL): 1.10 | Liquid stability at room temperature in buffer, ratio “signal at J0 + X/signal at J0” ([3]; J0 + 21, 0.031 ng/mL): 1.06 | Liquid stability at room temperature in buffer, ratio “signal at J0 + X/signal at J0” ([3]; J0 + 21, 0.0625 ng/mL): 1.1 | stability compared with recombinant proBNP(1-108) and BNP(1-32) [3, 5]: higher stability | signal in the BNP(1-32) and the proBNP(1-108) assay (20G7 antibody [1]): signal increasing with the compound concentration

CSCC[C@H](NC(=O)[C@H](CCCCN)NC(=O)[C@H](CCCNC(=N)N)NC(=O)CNC(=O)[C@H](Cc1ccccc1)NC(=O)CCCCCNC(=O)CNC(=O)[C@H](CCC(N)=O)NC(=O)[C@@H](NC(=O)[C@H](CCSC)NC(=O)[C@H](CCCCN)NC(=O)[C@@H]1CCCN1C(=O)[C@H](CO)NC(=O)[C@H](CCCNC(=N)N)NC(=O)[C@@H]1CCCN1C(=O)[C@H](C)NC(=O)[C@H](CCCNC(=N)N)NC(=O)[C@H](CC(C)C)NC(=O)[C@@H](NC(=O)[C@H](Cc1ccc(O)cc1)NC(C)=O)[C@@H](C)O)C(C)C)C(=O)N[C@@H](CC(=O)O)C(=O)N[C@@H](CCCNC(=N)N)C(N)=O [CaliproBNP3, Ac-YTLRAPRSPKMVQG-Ahx-FGRKMDR-CONH2] (Ac-YTLRAPRSPKMVQG[Ahx]FGRKMDR-NH2)
Liquid stability at room temperature in buffer, ratio “signal at J0 + X/signal at J0” ([4]; J0 + 7, 0.3 μg/mL): 0.91 | Liquid stability at room temperature in buffer, ratio “signal at J0 + X/signal at J0” ([4]; J0 + 7, 1 μg/mL): 0.92 | Liquid stability at room temperature in buffer, ratio “signal at J0 + X/signal at J0” ([4]; J0 + 14, 0.3 μg/mL): 0.98 | Liquid stability at room temperature in buffer, ratio “signal at J0 + X/signal at J0” ([4]; J0 + 14, 1 μg/mL): 1.02 | Liquid stability at room temperature in buffer, ratio “signal at J0 + X/signal at J0” ([4]; J0 + 21, 0.3 μg/mL): 1.15 | Liquid stability at room temperature in buffer, ratio “signal at J0 + X/signal at J0” ([4]; J0 + 21, 1 μg/mL): 1.06 | stability compared with recombinant proBNP(1-108) [4, 5]: higher stability | signal in the BioPlex 2200 proBNP assay (20G7 antibody [2]): increasing signal with the compound concentration
